Test results as given in US4031210A, “Antibiotic aminoglycosides, processes of preparation and pharmaceutical compositions” (Roussel-UCLAF, priority 1974, dated 1977).
Where a name gives a salt, the structure may show the parent alone. Read-outs that look alike come from different tables or passages of the source.

What was measured:
[1] = tested on: Klebsiella Pneumonia No. 52145; assay: In vivo antibacterial activity on experimental Klebsiella Pneumonia infection in mice; details: subcutaneous, 1, 5 and 24 hours after infection, 10 mice
Description: The antibacterial activity has been measured in vivo on an experimental Klebsiella Pneumonia infection.
40 male mice with a medium weight of 21 grams were divided in 4 series of 10 mice. An intraperitoneal infection with 0.5 ml of a Klebsiella Pneumonia No. 52145 culture in nutritive medium diluted to one thousandth with sterile water is conducted. Treatment is performed by a subcutaneous administration of the product of Example 2, (Product A) three times, (1 hour, 5 hours and 24 hours) after infection. The mortality rate at different times as indicated in the table was measured as well as the number of mice surviving after 8 days.

[2] = tested on: Streptococcus faecalis 99 F 74; assay: In vitro antibacterial activity, dilution method in liquid medium; assay type: cell-based; details: Enterococcus faecalis, 99F74; 18 H incubation, 37°, expressed as base; read-out: minimal inhibiting concentration (MIC)
Description: (§1) The antibacterial activity has been measured in vitro by the dilution method in liquid medium. A series of tubes is prepared in which is distributed the same quantity of nutritive medium. Increasing quantities of the antibiotic under study are distributed, then each tube is innoculated with a bacterial strain as indicated in the table. After a 18, 24 or 48 hour incubation in a 37° oven, inhibition of the bacterial growth is appraised by transillumination which determines the minimal inhibiting concentration (MIC) of the products expressed as μg/ml of base in the table. In the following table, the product of Example 2 is identified as Product A.

[3] = tested on: Enterobacter aerogenes Co86; assay: as above; assay type: cell-based; details: Klebsiella aerogenes, 37°, expressed as base, read-out: minimal inhibiting concentration (MIC)
Description: as §1

[4] = tested on: Escherichia coli 9 965; assay: as above; assay type: cell-based; details: 37°, expressed as base, read-out: minimal inhibiting concentration (MIC)
Description: as §1

[5] = tested on: Staphylococcus aureus 38 691; assay: as above; assay type: cell-based; details: 37°, expressed as base, read-out: minimal inhibiting concentration (MIC)
Description: as §1

[6] = tested on: Staphylococcus aureus 40 821; assay: as above; assay type: cell-based; details: 37°, expressed as base, read-out: minimal inhibiting concentration (MIC)
Description: as §1

[7] = tested on: Staphylococcus aureus 40 511; assay: as above; assay type: cell-based; details: 37°, expressed as base, read-out: minimal inhibiting concentration (MIC)
Description: as §1

[8] = tested on: Staphylococcus aureus 40 481; assay: as above; assay type: cell-based; details: 37°, expressed as base, read-out: minimal inhibiting concentration (MIC)
Description: as §1

[9] = tested on: Escherichia coli 9 911; assay: as above; assay type: cell-based; details: 37°, expressed as base, read-out: minimal inhibiting concentration (MIC)
Description: as §1

[10] = tested on: Salmonella anatum 23 348; assay: as above; assay type: cell-based; details: Salmonella enterica, 23348, 37°, expressed as base, read-out: minimal inhibiting concentration (MIC)
Description: as §1

[11] = tested on: Salmonella typhimurium 1 374; assay: as above; assay type: cell-based; details: Salmonella enterica, 37°, expressed as base, read-out: minimal inhibiting concentration (MIC)
Description: as §1

[12] = tested on: Escherichia coli 156; assay: as above; assay type: cell-based; details: 37°, expressed as base, read-out: minimal inhibiting concentration (MIC)
Description: as §1

[13] = tested on: Salmonella typhimurium 420; assay: as above; assay type: cell-based; details: Salmonella enterica, 37°, expressed as base, read-out: minimal inhibiting concentration (MIC)
Description: as §1

[14] = tested on: Serratia marcesens CoB 35; assay: as above; assay type: cell-based; details: 37°, expressed as base, read-out: minimal inhibiting concentration (MIC)
Description: as §1

[15] = tested on: Enterobacter aerogenes Co11; assay: as above; assay type: cell-based; details: Klebsiella aerogenes, 37°, expressed as base, read-out: minimal inhibiting concentration (MIC)
Description: as §1

[16] = total dose 0,03 mg (as free base)

Q: What does the source list for `CNC1CC(C)OC(OC2C(N)CC(N)C(OC3OC(CN)C(O)CC3N)C2O)C1O` [Product A, 4-0-[2',6'-diamino 2', 3', 6'-tridesoxy α, D-ribohexopyranosyl] 6-0-[3"-methylamino 3",4",6"-tridesoxy α, D-xylohexopyranosyl] 2-desoxy streptamine sulfate]?
A: Mortality at 5 H [1, 16]: 1; Survived to the eighth day (number of mice) [1, 16]: 9 mice; Survived to the eighth day (number of mice) ([1]; total dose 0,05 mg (as free base)): 10 mice; Survived to the eighth day (number of mice) ([1]; total dose 0,075 mg (as free base)): 10 mice; MIC [2]: > 20 µg/mL; MIC ([3]; 18 H incubation): 0.6 µg/mL; MIC ([3]; 24 H incubation): 0.6 µg/mL; MIC ([3]; 48 H incubation): 0.6 µg/mL; MIC ([4]; 9965, 18 H incubation): 0.6 µg/mL; MIC ([4]; 9965, 24 H incubation): 1 µg/mL; MIC ([4]; 9965, 48 H incubation): 2 µg/mL; MIC ([5]; 38691, 24 H incubation): 0.1 µg/mL; MIC ([5]; 38691, 48 H incubation): 0.1 µg/mL; MIC ([6]; 40821, 18 H incubation): 0.1 µg/mL; MIC ([6]; 40821, 24 H incubation): 0.1 µg/mL; MIC ([6]; 40821, 48 H incubation): 0.1 µg/mL; MIC ([7]; 40511, 18 H incubation): 0.2 µg/mL; MIC ([7]; 40511, 24 H incubation): 0.6 µg/mL; MIC ([7]; 40511, 48 H incubation): 1 µg/mL; MIC ([8]; 40481, 18 H incubation): 0.1 µg/mL; MIC ([8]; 40481, 24 H incubation): 0.1 µg/mL; MIC ([8]; 40481, 48 H incubation): 0.2 µg/mL; MIC ([9]; 9911, 18 H incubation): 0.6 µg/mL; MIC ([9]; 9911, 24 H incubation): 0.6 µg/mL; MIC ([9]; 9911, 48 H incubation): 0.2 µg/mL; MIC ([10]; 18 H incubation): 1 µg/mL; MIC ([10]; 24 H incubation): 3 µg/mL; MIC ([10]; 48 H incubation): 15 µg/mL; MIC ([11]; 18 H incubation): 1 µg/mL; MIC ([11]; 24 H incubation): 5 µg/mL; MIC ([11]; 48 H incubation): 10 µg/mL; MIC ([12]; 18 H incubation): 0.4 µg/mL; MIC ([12]; 24 H incubation): 0.6 µg/mL; MIC ([12]; 48 H incubation): 1 µg/mL; MIC ([13]; 18 H incubation): 2 µg/mL; MIC ([13]; 24 H incubation): 5 µg/mL; MIC ([13]; 48 H incubation): 20 µg/mL; MIC ([14]; COB35, 18 H incubation): 10 µg/mL; MIC ([14]; COB35, 24 H incubation): 40 µg/mL; MIC ([14]; COB35, 48 H incubation): 40 µg/mL; MIC ([15]; 18 H incubation): 0.4 µg/mL; MIC ([15]; 24 H incubation): 0.4 µg/mL; MIC ([15]; 48 H incubation): 1 µg/mL
